According to US20240327364A1, “THERAPEUTIC TARGETING OF GPR68 TO INDUCE FERROPTOSIS” (University Of Maryland, Baltimore, priority 2023, published 2024):

Assays:
CAMKK2 = target: T1, CAMKK2 (Homo sapiens, UniProt Q96RR4); test: KinomeScan; type: binding; conditions: read-out: % Control
T1 construct: purchased DiscoveRx (KinomeScan service)

CGRP1 = target: T2, CGRP1 (Homo sapiens, UniProt O60894+Q16602); test: GPCR Profiler; type: cell-based
T2 construct: host or cells: Chem-1 cells with Gα15

LOK = target: T3, LOK (Homo sapiens, UniProt O94804); test: KinomeScan; type: binding; conditions: read-out: % Control
T3 construct: purchased DiscoveRx

PFCDPK1(P. falciparum) = target: T4, PFCDPK1(P. falciparum) (Plasmodium falciparum, UniProt P62344); test: KinomeScan; type: binding; conditions: read-out: % Control
T4 construct: purchased DiscoveRx (Fremont, CA)

STK35 = target: T5, STK35 (Homo sapiens, UniProt Q8TDR2); test: KinomeScan; type: binding; conditions: read-out: % Control
T5 construct: purchased DiscoveRx (Fremont, CA)

PLK1 = target: T6, PLK1 (Homo sapiens, UniProt P53350); test: KinomeScan; type: binding; conditions: read-out: % Control
T6 construct: purchased DiscoveRx (Fremont, CA)

MAP3K15 = target: T7, MAP3K15 (Homo sapiens, UniProt Q6ZN16); test: KinomeScan; type: binding; conditions: read-out: % Control
T7 construct: purchased DiscoveRx (Fremont, CA)
T7 sequence (Q6ZN16 whole entry): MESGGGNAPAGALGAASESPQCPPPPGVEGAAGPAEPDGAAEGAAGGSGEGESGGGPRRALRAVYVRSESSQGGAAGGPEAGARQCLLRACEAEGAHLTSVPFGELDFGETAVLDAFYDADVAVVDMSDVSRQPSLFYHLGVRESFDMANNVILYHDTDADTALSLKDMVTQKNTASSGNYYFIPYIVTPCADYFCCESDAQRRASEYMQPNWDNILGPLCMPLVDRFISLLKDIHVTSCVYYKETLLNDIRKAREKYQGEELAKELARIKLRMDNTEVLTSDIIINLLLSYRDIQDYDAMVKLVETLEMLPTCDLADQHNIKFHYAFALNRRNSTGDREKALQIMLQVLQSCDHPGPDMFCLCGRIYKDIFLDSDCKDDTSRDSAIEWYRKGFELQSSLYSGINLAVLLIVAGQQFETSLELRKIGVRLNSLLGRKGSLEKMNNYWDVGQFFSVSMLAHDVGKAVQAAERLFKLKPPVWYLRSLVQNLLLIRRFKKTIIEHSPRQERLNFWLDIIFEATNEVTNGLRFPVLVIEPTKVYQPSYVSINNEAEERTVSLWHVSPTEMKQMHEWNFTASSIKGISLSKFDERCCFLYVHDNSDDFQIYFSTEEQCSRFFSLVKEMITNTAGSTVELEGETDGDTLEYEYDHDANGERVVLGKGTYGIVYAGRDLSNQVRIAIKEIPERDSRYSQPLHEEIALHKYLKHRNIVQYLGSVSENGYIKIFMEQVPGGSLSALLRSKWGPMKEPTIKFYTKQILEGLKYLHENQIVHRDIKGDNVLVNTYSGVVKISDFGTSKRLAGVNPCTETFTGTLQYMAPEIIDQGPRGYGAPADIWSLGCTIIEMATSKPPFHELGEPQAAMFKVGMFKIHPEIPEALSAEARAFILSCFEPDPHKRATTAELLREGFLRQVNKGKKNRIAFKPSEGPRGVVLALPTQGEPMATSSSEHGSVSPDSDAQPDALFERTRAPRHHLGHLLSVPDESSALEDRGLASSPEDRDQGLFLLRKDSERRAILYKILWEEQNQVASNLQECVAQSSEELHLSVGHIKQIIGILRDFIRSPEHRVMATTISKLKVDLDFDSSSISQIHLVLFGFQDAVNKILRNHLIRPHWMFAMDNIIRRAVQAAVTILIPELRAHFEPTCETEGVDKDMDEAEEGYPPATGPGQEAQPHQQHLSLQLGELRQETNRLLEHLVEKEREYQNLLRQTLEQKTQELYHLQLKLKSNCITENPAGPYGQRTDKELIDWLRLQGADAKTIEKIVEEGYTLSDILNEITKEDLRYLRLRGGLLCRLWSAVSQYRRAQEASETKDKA

sst2 = target: T8, sst2 (Homo sapiens, UniProt P30874); test: GPCR Profiler; type: cell-based
T8 construct: host or cells: Chem-1 cells with Gα15
T8 sequence (P30874 whole entry, species assumed): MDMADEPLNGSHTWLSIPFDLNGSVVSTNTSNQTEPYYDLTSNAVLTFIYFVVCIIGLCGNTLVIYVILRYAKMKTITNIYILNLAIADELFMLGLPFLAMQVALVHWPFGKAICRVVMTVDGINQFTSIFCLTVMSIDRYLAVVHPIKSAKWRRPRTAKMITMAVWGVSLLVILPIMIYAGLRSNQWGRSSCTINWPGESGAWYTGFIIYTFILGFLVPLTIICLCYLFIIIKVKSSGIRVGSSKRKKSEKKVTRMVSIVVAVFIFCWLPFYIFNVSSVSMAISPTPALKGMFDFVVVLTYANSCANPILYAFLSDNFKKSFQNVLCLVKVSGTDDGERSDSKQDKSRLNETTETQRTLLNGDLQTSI

[1] = target: T9, ABL1(T315I)-nonphosphorylated (Homo sapiens, UniProt P00519, T315I); test: KinomeScan; type: binding; conditions: read-out: % Control
T9 construct: purchased DiscoveRx

FP = target: T10, FP (Homo sapiens, UniProt P43088); test: GPCR Profiler; type: cell-based
T10 construct: host or cells: Chem-1 cells expressing Gα15
T10 sequence (P43088 whole entry): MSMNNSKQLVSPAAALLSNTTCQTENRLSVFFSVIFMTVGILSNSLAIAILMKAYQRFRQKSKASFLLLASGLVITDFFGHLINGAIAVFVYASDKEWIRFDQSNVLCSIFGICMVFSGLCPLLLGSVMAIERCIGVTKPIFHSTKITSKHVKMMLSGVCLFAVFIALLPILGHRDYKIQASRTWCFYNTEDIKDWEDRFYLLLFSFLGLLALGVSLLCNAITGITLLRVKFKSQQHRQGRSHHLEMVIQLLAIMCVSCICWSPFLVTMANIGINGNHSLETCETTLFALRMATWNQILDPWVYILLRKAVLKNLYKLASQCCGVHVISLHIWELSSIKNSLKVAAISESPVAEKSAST

CRF2 = target: T11, CRF2 (Homo sapiens, UniProt Q13324); test: GPCR Profiler; type: cell-based
T11 construct: host or cells: Chem-1 cells with Gα15
T11 sequence (Q13324 whole entry): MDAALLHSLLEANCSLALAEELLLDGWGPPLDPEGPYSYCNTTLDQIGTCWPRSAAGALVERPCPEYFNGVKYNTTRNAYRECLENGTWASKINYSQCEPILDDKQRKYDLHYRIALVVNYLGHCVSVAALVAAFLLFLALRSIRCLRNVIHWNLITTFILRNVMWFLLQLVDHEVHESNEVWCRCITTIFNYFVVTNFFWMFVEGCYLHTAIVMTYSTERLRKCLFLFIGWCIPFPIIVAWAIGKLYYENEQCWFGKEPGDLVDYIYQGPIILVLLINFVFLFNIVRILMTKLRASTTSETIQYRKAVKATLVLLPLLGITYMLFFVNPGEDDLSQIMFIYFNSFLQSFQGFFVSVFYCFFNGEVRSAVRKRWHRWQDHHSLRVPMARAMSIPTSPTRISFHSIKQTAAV

[2] = target: T12, JAK3(JH1domain-catalytic) (Homo sapiens, UniProt P52333); test: KinomeScan; type: binding; conditions: read-out: % Control
T12 construct: JAK3(JH1domain-catalytic); purchased DiscoveRx (Fremont, CA)

EPHA6 = target: T13, EPHA6 (Homo sapiens, UniProt Q9UF33); test: KinomeScan; type: binding; conditions: read-out: % Control
T13 construct: purchased DiscoveRx (Fremont, CA)

PKN2 = target: T14, PKN2 (Homo sapiens, UniProt Q16513); test: KinomeScan; type: binding; conditions: read-out: % Control
T14 construct: purchased DiscoveRx (Fremont, CA)
T14 sequence (Q16513 whole entry): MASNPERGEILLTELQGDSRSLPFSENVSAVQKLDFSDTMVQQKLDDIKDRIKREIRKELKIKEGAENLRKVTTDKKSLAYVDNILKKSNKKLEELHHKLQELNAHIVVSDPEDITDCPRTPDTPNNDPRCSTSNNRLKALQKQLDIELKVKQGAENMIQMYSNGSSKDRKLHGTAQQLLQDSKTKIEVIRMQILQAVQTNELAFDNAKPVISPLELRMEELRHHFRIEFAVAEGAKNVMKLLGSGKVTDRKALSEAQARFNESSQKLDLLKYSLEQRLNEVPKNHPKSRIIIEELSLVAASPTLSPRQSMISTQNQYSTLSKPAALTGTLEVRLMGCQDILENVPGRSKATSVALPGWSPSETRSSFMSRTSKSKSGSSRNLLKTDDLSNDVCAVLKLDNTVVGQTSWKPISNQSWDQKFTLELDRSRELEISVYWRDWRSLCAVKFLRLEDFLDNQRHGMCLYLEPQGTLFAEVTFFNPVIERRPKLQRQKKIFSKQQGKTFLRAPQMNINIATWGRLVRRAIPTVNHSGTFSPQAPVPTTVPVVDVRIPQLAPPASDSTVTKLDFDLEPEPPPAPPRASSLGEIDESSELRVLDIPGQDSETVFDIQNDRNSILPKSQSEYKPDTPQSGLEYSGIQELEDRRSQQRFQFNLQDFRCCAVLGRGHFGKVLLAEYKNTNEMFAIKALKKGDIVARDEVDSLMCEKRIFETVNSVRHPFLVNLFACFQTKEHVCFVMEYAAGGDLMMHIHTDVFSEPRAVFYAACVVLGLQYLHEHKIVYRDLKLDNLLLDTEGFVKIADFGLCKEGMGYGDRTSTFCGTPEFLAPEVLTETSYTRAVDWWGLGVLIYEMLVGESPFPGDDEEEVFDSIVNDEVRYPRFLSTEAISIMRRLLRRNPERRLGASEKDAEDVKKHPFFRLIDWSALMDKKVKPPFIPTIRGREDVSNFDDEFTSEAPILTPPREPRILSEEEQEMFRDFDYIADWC

p38-delta = target: T15, p38-delta (Homo sapiens, UniProt O15264); test: KinomeScan; type: binding; conditions: read-out: % Control
T15 construct: purchased DiscoveRx
T15 sequence (O15264 whole entry): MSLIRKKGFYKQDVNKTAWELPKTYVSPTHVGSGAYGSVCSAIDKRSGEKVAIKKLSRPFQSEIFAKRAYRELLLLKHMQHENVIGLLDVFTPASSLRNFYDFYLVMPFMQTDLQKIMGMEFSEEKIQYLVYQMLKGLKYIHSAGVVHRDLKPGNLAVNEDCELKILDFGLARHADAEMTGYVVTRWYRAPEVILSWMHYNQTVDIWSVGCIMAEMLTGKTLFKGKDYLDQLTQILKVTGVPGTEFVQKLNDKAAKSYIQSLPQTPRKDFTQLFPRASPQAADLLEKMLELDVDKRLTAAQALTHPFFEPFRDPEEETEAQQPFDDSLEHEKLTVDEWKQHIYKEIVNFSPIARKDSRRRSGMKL

GPR4 = target: T16, GPR4 (Homo sapiens, UniProt P46093); test: SRE-luciferase assay, GPR4-transfected HEK293 cells; type: cell-based; conditions: OGM2 at 1, 10, or 100 μM
T16 construct: expressed in transfected cells
T16 sequence (P46093 whole entry): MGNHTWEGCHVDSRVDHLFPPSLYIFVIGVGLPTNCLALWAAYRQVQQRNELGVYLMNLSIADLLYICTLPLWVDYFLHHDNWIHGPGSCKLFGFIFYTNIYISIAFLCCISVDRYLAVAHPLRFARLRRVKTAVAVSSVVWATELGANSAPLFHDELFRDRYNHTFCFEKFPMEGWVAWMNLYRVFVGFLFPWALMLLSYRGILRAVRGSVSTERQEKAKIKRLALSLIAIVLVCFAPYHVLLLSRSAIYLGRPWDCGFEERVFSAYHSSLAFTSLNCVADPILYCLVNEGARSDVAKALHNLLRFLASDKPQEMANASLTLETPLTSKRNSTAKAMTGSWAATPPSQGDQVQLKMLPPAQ
Method: 12-well plates of cells were transfected with 1 μg DNA using Lipofectamine 3000 with sre:luciferase and either the vector backbone, GFP, GPR68, GPR68-GFP, GPR4, or 336X-GFP. After 3 days, these cells were then lysed, and cell extracts were subjected to Steady-Glo luciferase assay (Promega™) according to the manufacturer's instructions. The results were normalized to cell titer, as determined using Cell Titer-Glo luminescence assay (Promega™). For some procedure, the cells were treated in serum-free medium, and were lysed on the third day.
Because GPR4, the paralog with highest homology with GPR68, was not covered in the initial GPCR profiling, whether OGM2 could inhibit GPR4 was tested by examining the effects of OGM2 on acid-induced serum responsive element (SRE) luciferase activity in HEK293 cells transfected with either GPR4 or GPR68. Mild acidification increased luciferase activity in GPR4 and GPR68 transfected cells above that of vector control.
Cas9^GPR68=GPR68 targeted sgRNA and Cas9; CTL=control; MoGPR68=GPR68 morpholino treatment. […] These cells were exposed to acidic media and assayed for luciferase activity as a readout of the receptor activity.

HEK293 = type: cell-based
Description: FIG. 59A through FIG. 59D: OGM2 causes specific cell death in glioblastoma cells.
Thus, in contrast to erastin, OGM2 induces ferroptosis selectively in cancer cells.

T2 sequence (Q16602 23-461): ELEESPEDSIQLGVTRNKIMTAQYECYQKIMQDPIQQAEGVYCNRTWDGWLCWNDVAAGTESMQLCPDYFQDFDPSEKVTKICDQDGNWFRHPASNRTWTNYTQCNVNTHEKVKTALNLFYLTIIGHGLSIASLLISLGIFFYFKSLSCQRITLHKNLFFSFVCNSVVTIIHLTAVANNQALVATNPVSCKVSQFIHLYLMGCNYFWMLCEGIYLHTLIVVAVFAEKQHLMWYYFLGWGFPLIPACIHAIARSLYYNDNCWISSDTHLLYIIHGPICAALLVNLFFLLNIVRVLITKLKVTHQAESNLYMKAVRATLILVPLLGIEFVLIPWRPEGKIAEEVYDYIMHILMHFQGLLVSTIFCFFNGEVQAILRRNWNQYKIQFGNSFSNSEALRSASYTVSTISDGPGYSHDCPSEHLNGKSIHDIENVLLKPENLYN
T2 sequence (O60894 27-148 partner): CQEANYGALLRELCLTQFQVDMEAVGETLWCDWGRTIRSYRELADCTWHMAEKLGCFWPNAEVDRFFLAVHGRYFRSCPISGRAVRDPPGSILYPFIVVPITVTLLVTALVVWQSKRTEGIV

**Q.** CCc1ccc2c(c1)C1(NN=C(c3cccc4ccccc34)S1)C(=O)N2 (stereo not drawn) [OGM1, 5-ethyl-5′-naphthalen-1-ylspiro[1H-indole-3,2′-3H-1,3,4-thiadiazole]-2-one] was tested. Which remaining binding at 10 µM (CAMKK2) did it give?
**A.** 89%

**Q.** And the Antagonism (CGRP1; 10 uM)?
**A.** −2.3

**Q.** What about the Agonism (CGRP1; 12.5 uM) of the same compound?
**A.** 0.5

**Q.** And the remaining binding at 10 µM (LOK)?
**A.** 100%

**Q.** And the remaining binding at 10 µM (PFCDPK1(P. falciparum))?
**A.** 95%

**Q.** And the remaining binding at 10 µM (STK35)?
**A.** 100%

**Q.** What about the remaining binding at 10 µM (PLK1) of the same compound?
**A.** 100%

**Q.** What about the remaining binding at 10 µM (MAP3K15) of the same compound?
**A.** 100%

**Q.** And the Antagonism (sst2; 10 uM)?
**A.** −1

**Q.** And the Agonism (sst2; 12.5 uM)?
**A.** −0.2

**Q.** What about the remaining binding at 10 µM [1] of the same compound?
**A.** 73%

**Q.** What about the Antagonism (FP; 10 uM) of the same compound?
**A.** 8.9

**Q.** And the Agonism (FP; 12.5 uM)?
**A.** 0.9

**Q.** What about the Antagonism (CRF2; 10 uM) of the same compound?
**A.** −13.7

**Q.** And the Agonism (CRF2; 12.5 uM)?
**A.** 0.6

**Q.** And the remaining binding at 10 µM [2]?
**A.** 84%

**Q.** And the remaining binding at 10 µM (EPHA6)?
**A.** 100%

**Q.** And the remaining binding at 10 µM (PKN2)?
**A.** 100%

**Q.** What about the remaining binding at 10 µM (p38-delta) of the same compound?
**A.** 81%

**Q.** For CCc1ccc2c(c1)C1(NN=C(c3ccccc3)S1)C(=O)N2 (stereo not drawn) [OGM2], which “acid-induced SRE-luciferase activity” value (GPR4) is on record?
**A.** not inhibited

**Q.** And the “HEK293 cell viability / survival” value (HEK293)?
**A.** no effect
